Experimental findings from paper PMC3574224, “Na^+ Regulation in the Malaria Parasite Plasmodiumfalciparum Involves the Cation ATPase PfATP4 and Is a Target of the Spiroindolone Antimalarials” (Cell Host & Microbe, 2013) are described below.

The structures appear in SMILES notation.

The test system of assay [1] is P. falciparum NITD609-R^Dd2 clone #2 (mutant PfATP4). The experiment in a line: Disruption of [Na^+]i regulation, SBFI-loaded trophozoites, NITD609-R^Dd2 clone #2. The class given is cell-based. Conditions: Plasmodium falciparum, from fitted curves, read-out: IC50 for disruption of Na^+ regulation by NITD246. As for the experimental part:
(§1) The [Na^+]i of saponin-isolated parasites was measured at 37°C using the Na^+-sensitive dye SBFI (Molecular Probes, Invitrogen) in conjunction with a PerkinElmer LS 50B Fluorescence Spectrometer fitted with a Dual Excitation Fast Filter. Saponin-isolated parasites were loaded with SBFI by suspension (at 1.40–1.80 × 10^8 cells/mL) for 20 min at 37°C in bicarbonate-free RPMI1640 supplemented with 20 mM D-glucose, 0.2 mM hypoxanthine, 25 mM HEPES, and 25 mg/L gentamycin sulfate (pH 7.10), to which SBFI-acetoxymethyl ester (5.5 μM) and Pluronic F-127 (0.01% w/v) were added. The dye-loaded cells were washed twice (12,000 × g, 0.5 min) in bicarbonate-free RPMI then incubated for a further 20 min at 37°C to allow for complete de-esterification of the dye before being resuspended at a final cell concentration of 1.5–2.5 × 10^7 cells/mL in standard saline. The dye-loaded cells were excited at 340 nm and 380 nm with fluorescence recorded at 490 nm. Calibration of the relationship between the 340/380 nm fluorescence ratio and [Na^+]i (see Figures S1A–S1C) was carried out as described previously ([Diarra et al., 2001]; [Harootunian et al., 1989]). Several inhibitors used in this study caused inner filter effects ([Gu and Kenny, 2009]; [Srinivas and Mutharasan, 1987]); in these cases calibration curves were generated with the inhibitors present. […]

Assay [2] concerns P. falciparum Dd2^attB parent. The experiment in a line: Disruption of [Na^+]i regulation, SBFI-loaded trophozoites, Dd2^attB parent. In kind it is cell-based. Conditions: Plasmodium falciparum, from fitted curves, read-out: IC50 for disruption of Na^+ regulation by NITD246. As for the experimental part:
as §1

The target in assay [3] is T1, membrane-associated ATPase activity in P. falciparum infected human erythrocytes (3D7) (Plasmodium falciparum, UniProt A0A143ZZK9).
T1 construct: saponin-isolated parasites were lysed by suspension in ice-cold water; endogenous in cells; host or cells: membrane preparation of saponin-isolated mature trophozoite-stage P. falciparum 3D7 parasites
T1 sequence (A0A143ZZK9 whole entry): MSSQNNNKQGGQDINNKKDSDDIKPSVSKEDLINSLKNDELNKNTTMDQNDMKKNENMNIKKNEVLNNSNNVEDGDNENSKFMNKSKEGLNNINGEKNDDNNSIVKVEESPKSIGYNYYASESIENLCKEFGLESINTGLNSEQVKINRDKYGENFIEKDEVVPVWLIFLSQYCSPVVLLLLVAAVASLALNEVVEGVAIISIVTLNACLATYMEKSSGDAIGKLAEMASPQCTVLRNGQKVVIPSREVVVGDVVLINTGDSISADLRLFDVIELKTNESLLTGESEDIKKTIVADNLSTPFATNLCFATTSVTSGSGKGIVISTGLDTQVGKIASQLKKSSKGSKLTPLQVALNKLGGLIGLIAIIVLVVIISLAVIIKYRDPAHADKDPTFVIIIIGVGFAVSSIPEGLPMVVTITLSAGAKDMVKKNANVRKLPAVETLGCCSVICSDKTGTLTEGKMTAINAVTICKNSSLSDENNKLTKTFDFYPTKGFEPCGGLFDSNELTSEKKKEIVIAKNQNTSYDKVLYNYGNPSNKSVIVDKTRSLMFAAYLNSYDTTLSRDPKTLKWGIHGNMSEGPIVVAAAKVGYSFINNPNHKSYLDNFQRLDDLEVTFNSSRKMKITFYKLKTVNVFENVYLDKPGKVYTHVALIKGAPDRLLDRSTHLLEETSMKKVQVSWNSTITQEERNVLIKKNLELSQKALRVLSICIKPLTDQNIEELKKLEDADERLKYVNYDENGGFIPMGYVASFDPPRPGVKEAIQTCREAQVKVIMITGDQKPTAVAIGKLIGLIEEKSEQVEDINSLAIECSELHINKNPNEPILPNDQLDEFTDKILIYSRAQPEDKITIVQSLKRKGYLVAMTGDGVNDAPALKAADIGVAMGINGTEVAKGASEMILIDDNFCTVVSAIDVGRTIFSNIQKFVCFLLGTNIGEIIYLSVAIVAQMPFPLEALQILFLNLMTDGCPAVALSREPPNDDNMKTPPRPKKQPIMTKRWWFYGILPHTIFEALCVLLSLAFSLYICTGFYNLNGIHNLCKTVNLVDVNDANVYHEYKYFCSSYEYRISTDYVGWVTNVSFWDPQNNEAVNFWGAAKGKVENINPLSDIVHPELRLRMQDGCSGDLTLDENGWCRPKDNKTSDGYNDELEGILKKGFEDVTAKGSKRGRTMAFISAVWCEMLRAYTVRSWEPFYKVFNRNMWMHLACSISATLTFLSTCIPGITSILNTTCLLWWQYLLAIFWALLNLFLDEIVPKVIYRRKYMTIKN
The assay is described as follows: Membrane-associated ATPase activity (Pi production), infected erythrocyte membranes. In kind it is biochemical. The conditions noted are these: 50 nM. As for the experimental part: For the preparation of uninfected erythrocyte membranes, packed uninfected erythrocytes were lysed by incubation for 5 min in ice-cold PBS containing 0.1% (w/v) saponin together with 1/500 Protease Inhibitor Cocktail Set III (Calbiochem). The erythrocyte ghosts were pelleted by centrifugation (12,000 × g, 10 min) and washed three times in ice-cold water (12,000 × g, 10 min) immediately prior to their use in the ATPase assay. To prepare membranes from parasitised erythrocytes, saponin-isolated parasites were lysed by suspension in ice-cold water (containing 1/500 Protease Inhibitor Cocktail Set III) then washed three times in ice-cold water (12,000 × g, 10 min) before their immediate use in the ATPase assay. The ATPase activity of membrane preparations from uninfected erythrocytes and saponin-isolated parasites was estimated from the rate of hydrolysis of ATP and measured using the PiColorLock Gold Phosphate (Pi) Detection System (Innova Biosciences). Briefly, membrane preparations from 1–3 × 10^8 cells were suspended in reaction buffer (100 mM of either NaCl or choline chloride, 50 mM Tris-HCl, 20 mM KCl, and 2 mM MgCl2) at 37°C. The ATPase reaction was initiated by the addition of 0.25 mM Na2ATP. Note that it was necessary to use the Na^+ salt of ATP, rather than the K^+ and Mg^2+ salts, as the latter both contain residual Pi that saturated the Pi detection system. […]

Assay [4] deals with P. falciparum Dd2^attB CAM I398F/P990R (mutant PfATP4 transfectant). The experiment in a line: Disruption of [Na^+]i regulation, SBFI-loaded trophozoites, Dd2^attB CAM I398F/P990R. In kind it is cell-based. The conditions noted are these: Plasmodium falciparum, from fitted curves, read-out: IC50 for disruption of Na^+ regulation by NITD246. As for the experimental part:
as §1

In assay [5] the test system is P. falciparum trophozoites. The assay is described as follows: Cytosolic [Ca^2+]i in fura-2-loaded saponin-isolated parasites. The class given is cell-based, Plasmodium falciparum. The conditions noted are these: 50 nM; medium containing 1 μM Ca^2+. The method, then: [Ca^2+]i was measured with the Ca^2+-sensitive indicator fura-2 (Molecular Probes, Invitrogen) using a loading protocol identical to that described for SBFI. Calibration was performed as described previously ([Alleva and Kirk, 2001]).

In the case of `C[C@H]1Cc2c([nH]c3cc(F)c(F)cc23)[C@@]2(N1)C(=O)Nc1ccc(Cl)cc12` [NITD246], the IC50 turned out to be 10.4 ± 8.4 nM in assay [1], 1.7 ± 0.5 nM in assay [2] and 3.9 ± 1.7 nM in assay [4]. The remaining activity at 0.05 µM in assay [3] (100 mM Na^+, n = 5, p = 0.020, read-out: ATPase activity, % of the control value) turned out to be 60%. The “Effect on ATPase activity” value in assay [3] (low (0.5 mM) [Na^+] medium, p = 0.63) was “no significant change”. For the same compound, the “Effect on [Ca^2+]i” value in assay [5] is “no effect”.

A word on the IC50: it is the midpoint of a concentration-inhibition curve.
